According to patent EP0567613B1, “COMPOSITIONS FOR THERAPY AND PREVENTION OF CANCER” (The Government of the United States of America, as …, priority 1991, dated 1993):
One block for each compound: values may come before it.

Key:
Leukemia K562 = test: Tumor cell growth / proliferation; details: K562 cell line
[1] = tested on: premalignant 10T1/2 cells; test: cells; details: for Differentiation at 1 mM: sodium salts; for DC50: Mus musculus, Adipocyte, read-out: DC50, concentration of compound causing 50% differentiation; for adipocyte conversion: glutamine antagonists
Protocol: C. Quantitation of adipocytosis. Lipids stained with Oil-Red O were extracted with butanol, and the optical density at 510 nm determined.
Lower: Quantitation of adipocytosis. Cells were fixed with 37% formaldehyde and stained with Oil-Red O. The stained intracellular lipid was extracted with butanol, and the optical density was determined using a Titertek Multiskan MC, manufactured by Flow Laboratories, at a wavelength 510 nm.

[2] = tested on: 4C8a10 cells (revertants of Haras-transformed NIH3T3 fibroblasts); test: Tumor formation of cells pretreated in culture and injected s.c. into athymic nude mice; assay type: in vivo; details: cells pretreated with 5-AzadC 0.1 µM, after 3 weeks
Excerpt: One-two weeks later the cells were transplanted subcutaneously into athymic mice.
(§1) The experimental model involved nonmalignant 4C8a10 cells (revertants of Haras-transformed NIH3T3 fibroblasts). […]
Frederick Cancer Research Facility).

10T1/2 cells = test: Neoplastic foci formation in culture
Excerpt: […] The cells were then subcultured in the absence of the nucleoside analog for an additional seven weeks. […] For the tumorigenicity assay, 4-5 week-old female athymic nude mice were inoculated s.c. with 1 x 10^6 cells and observed for tumor growth at the site of injection.

4C8a10 cells = test: Malignant phenotype in culture / growth on matrigel; assay type: cell-based
Protocol: as §1
^b Cells were plated on top of matrigel (reconstituted basement membrane) and observed for malignant growth pattern, i.e., active replication, development of characteristic processes, and invasion.

C3H 10T1/2 Cells = test: Tumorigenicity of treated cells in athymic mice; details: time 8 weeks
Protocol: Premalignant cells (3-4 x 10^5) were plated in 75 cm^2 dishes and 5-AzadC 0.1 µM was added to the growth medium at 20 and 48 hrs after plating. The cells were then subcultured in the absence of the nucleoside analog for an additional seven weeks. […] For the tumorigenicity assay, 4-5 week-old female athymic nude mice were inoculated s.c. with 1 x 10^6 cells and observed for tumor growth at the site of injection.

HL-60 = test: Granulocyte differentiation (NBT reduction, morphology) and viability by trypan blue exclusion; details: Homo sapiens, HL-60, read-out: Cell viability
Protocol: The number of NBT positive cells was determined after 4 [solid bars] or 7 days [hatched bar] of treatment. […] Glutamine Starvation (Gln, < 0.06 mM) was as described (18).
The ability of cells to reduce nitroblue tetrazolium (NBT) is indicative of oxidase activity which is characteristic of the more mature forms of human bone marrow granulocytes. NBT reduction thus serves as an indicator of granulocyte differentiation. […] Glutamine starvation (Gln, < 0.06 mM) was as described. […] DON, ACV and HPA are glutamine antagonists.

[3] = tested on: Erythroleukemia K562 cells; test: Induction of hemoglobin synthesis (benzidine staining, protein quantitation); details: HU 100 µM, seven days
[4] = tested on: Prostate Adenocarcinoma PC3; test: Tumor cell growth / proliferation; assay type: cell-based; details: Homo sapiens, PC-3
Protocol: Studies of depth were performed with two androgenindependent human prostate adenocarcinoma cell lines, PC3 and DU145, established from bone and brain metastases, respectively.

Malignant Melanoma A375 = test: Tumor cell growth / proliferation

SMILES: O=C(O)Cc1cc(O)cc(O)c1
toxicity (Leukemia K562): highly toxic

DC50 [1]: < 100 µM
SMILES: O=C(O)Cc1cccc2ccccc12 [1-naphthylacetate]
Differentiation at 1 mM [1]: >95%

SMILES: O=C(O)Cc1ccc(O)cc1O [2,4-dihydroxyphenylacetate]
toxicity (Leukemia K562): highly toxic

DC50 [1]: 500 µM
SMILES: O=C(O)Cc1c(Cl)cccc1Cl [2,6-dichlorophenylacetate]
Differentiation at 1 mM [1]: 75%

SMILES: O=C(O)Cc1cccc(Cl)c1 [3-chlorophenylacetate]
Differentiation at 1 mM [1]: 80% | DC50 [1]: 500 µM

DC50 [1]: 1000 µM
SMILES: O=C(O)Cc1ccc(Cl)cc1 [4-chlorophenylacetate]
Differentiation at 1 mM [1]: 50%

DC50 [1]: 700 µM
SMILES: O=C(O)Cc1ccc(F)cc1 [4-fluorophenylaceatae]
Differentiation at 1 mM [1]: 65%

Tumor Formation Size, mean (range) [2]: 11.5 (4-19) mm | frequency of foci of neoplastically transformed cells (10T1/2 cells): about 7x10^-4 | time until malignant conversion evident (4C8a10 cells; transient treatment of premalignant cells): ≤ 2 days | Tumors Diameter (C3H 10T1/2 Cells; 5-AzadC 0.1 µM): 5.5 ± 2.5 mm ± S.D.
SMILES: Nc1ncn([C@H]2C[C@H](O)[C@@H](CO)O2)c(=O)n1 [5-AzadC, 5-aza-2'-deoxycytidine, reference compound]
Tumor Formation Incidence ([2]; 5x10^5 cells per site s.c.): 8/8 | Growth on matrigel (4C8a10 cells; 5-AzadC 0.1 µM): + | Tumors Incidence (C3H 10T1/2 Cells; 5-AzadC 0.1 µM at 20 and 48 hrs after plating, 1 x 10^6 cells s.c.): 8/8

SMILES: N[C@H](C(=O)O)[C@@H]1CC(Cl)=NO1 [ACV, acivicin]
adipocyte conversion [1]: neither glutamine starvation nor by treatment with glutamine antagonists such as DON and ACV resulted in adipocyte conversion | viability at 1 µg/mL (HL-60): 63% | viability at 3 µg/mL (HL-60): 63%

SMILES: [N-]=[N+]=CC(=O)CC[C@H](N)C(=O)O [DON, 6-diazo-5-oxo-L-norleucine]
adipocyte conversion [1]: neither glutamine starvation nor by treatment with glutamine antagonists such as DON and ACV resulted in adipocyte conversion | viability at 25 µg/mL (HL-60): 75% | viability at 30 µg/mL (HL-60): 75%

SMILES: NC(=O)NO [HU, hydroxyurea, reference compound]
Benzidine Positive Cells [3]: 17.2%

SMILES: Cc1ccc(C(=O)Nc2ccc(S(=O)(=O)O)c3cc(S(=O)(=O)O)cc(S(=O)(=O)O)c23)cc1NC(=O)c1cccc(NC(=O)Nc2cccc(C(=O)Nc3cc(C(=O)Nc4ccc(S(=O)(=O)O)c5cc(S(=O)(=O)O)cc(S(=O)(=O)O)c45)ccc3C)c2)c1 [Suramin, suramin]
activity at 75 µg/mL ([4]; Suramin 75 µg/ml): 58.5% | activity at 150 µg/mL ([4]; Suramin 150 µg/ml): 46.5% | activity at 300 µg/mL ([4]; Suramin 300 µg/ml): 31% | Growth (Malignant Melanoma A375; Suramin 38 µg/ml): 78.3 % of control | Viability (Malignant Melanoma A375; Suramin 38 µg/ml): > 95% | Growth (Malignant Melanoma A375; Suramin 75 µg/ml): 56.8 % of control | Viability (Malignant Melanoma A375; Suramin 75 µg/ml): > 95% | Growth (Malignant Melanoma A375; Suramin 150 µg/ml): 38.6 % of control | Viability (Malignant Melanoma A375; Suramin 150 µg/ml): 92% | Growth (Malignant Melanoma A375; Suramin 300 µg/ml): 26.6 % of control | Viability (Malignant Melanoma A375; Suramin 300 µg/ml): 82%
